Tests used:
[1] = molecular target: T1, sucrose transporter S21 (SoSUT1) (Spinacia oleracea, UniProt Q03411); test: [14C]-sucrose uptake by yeast strain SUSY7 expressing the spinach sucrose transporter; type: cell-based; conditions: [14C]-sucrose uptake, pH 3.8, read-out: Activity relative to the control [%]
T1 construct: expressed in transfected cells; host or cells: Saccharomyces cerevisiae SUSY7
T1 sequence (Q03411 1-525): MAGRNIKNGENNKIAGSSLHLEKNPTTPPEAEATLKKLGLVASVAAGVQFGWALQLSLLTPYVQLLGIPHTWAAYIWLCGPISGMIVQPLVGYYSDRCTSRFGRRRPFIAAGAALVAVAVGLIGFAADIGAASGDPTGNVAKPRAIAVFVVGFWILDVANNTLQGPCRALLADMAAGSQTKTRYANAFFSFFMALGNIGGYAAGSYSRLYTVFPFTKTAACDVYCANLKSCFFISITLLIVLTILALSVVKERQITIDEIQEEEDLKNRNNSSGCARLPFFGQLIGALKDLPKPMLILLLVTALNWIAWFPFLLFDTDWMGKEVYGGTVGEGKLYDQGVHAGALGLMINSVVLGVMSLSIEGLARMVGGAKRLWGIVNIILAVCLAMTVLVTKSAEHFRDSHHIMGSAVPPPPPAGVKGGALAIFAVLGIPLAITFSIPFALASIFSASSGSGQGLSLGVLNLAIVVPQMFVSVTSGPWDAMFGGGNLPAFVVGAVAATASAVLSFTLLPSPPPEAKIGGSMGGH
Protocol: Yeast cells of the strain SUSY7 (Riesmeier et al., 1992, EMBO J. 11: 4705-4713) are used to identify substances which have an inhibitory effect on sucrose transporters from spinach. Cells of this strain are transformed with a cDNA sequence which codes for the sucrose transporter S21 (SoSUT1) from spinach and which ensures expression of a functional transporter in the cells. The yeast cells are cultured in minimal medium (SD+2% (w/v) sucrose, pH 3.8) at 28° C. and harvested in the logarithmic phase (OD600 =0.6). The cells are spun down at 4000 rpm for 10 minutes and washed twice with SD medium. A cell concentration of c=50 g/l in SD medium is adjusted according to the wet weight of the cells, and 200 μl aliquot fractions are taken. Before the actual reaction, the cells are incubated in 10 mM glucose for 5 min and adjusted to pH 3.8 with MES buffer. The reaction is started by adding 200 μl of a 0.2 mmol/l [14C]-sucrose solution (3 mCi/mmol) in SD medium (pH 3.8). After 20, 60, 120, 180 and 240 seconds, 70 μl portions of the suspension are removed and pipetted into 4 ml of ice-cold water in order to stop the reaction. The cells are filtered off on glass fiber filters and washed twice with ice-cold water. The radioactivity on the filters is subsequently determined in a liquid scintillation counter. The substances to be tested are added 30 seconds before addition of the sucrose. The uptake of radiolabeled sucrose without addition of a potential inhibitor is determined as one control. Cells of the strain SUSY7 which are not transformed with cDNA sequences coding for a sucrose transporter from spinach are employed as further control.
The various tested substances, their concentration and the activity of the transporter, shown as percentage activity of the control in which no potential inhibitors were added, are indicated. Substances which specifically show an inhibitory effect on the sucrose transporter S21 (SoSUT1), are tested for their herbicidal and growth-regulating effect on whole plants.

[2] = molecular target: T2, amino-acid transporter AAP2 (Arabidopsis thaliana, UniProt Q38967); test: Uptake of radiolabeled L-proline by yeast mutant 22457d-AAP2 expressing the plant amino-acid transporter; type: cell-based; conditions: L-[14C]-proline uptake, read-out: Activity relative to control [%]
T2 construct: expressed in transfected cells; host or cells: Saccharomyces cerevisiae mutant 22574d (also printed 22457d)
T2 sequence (Q38967 1-493): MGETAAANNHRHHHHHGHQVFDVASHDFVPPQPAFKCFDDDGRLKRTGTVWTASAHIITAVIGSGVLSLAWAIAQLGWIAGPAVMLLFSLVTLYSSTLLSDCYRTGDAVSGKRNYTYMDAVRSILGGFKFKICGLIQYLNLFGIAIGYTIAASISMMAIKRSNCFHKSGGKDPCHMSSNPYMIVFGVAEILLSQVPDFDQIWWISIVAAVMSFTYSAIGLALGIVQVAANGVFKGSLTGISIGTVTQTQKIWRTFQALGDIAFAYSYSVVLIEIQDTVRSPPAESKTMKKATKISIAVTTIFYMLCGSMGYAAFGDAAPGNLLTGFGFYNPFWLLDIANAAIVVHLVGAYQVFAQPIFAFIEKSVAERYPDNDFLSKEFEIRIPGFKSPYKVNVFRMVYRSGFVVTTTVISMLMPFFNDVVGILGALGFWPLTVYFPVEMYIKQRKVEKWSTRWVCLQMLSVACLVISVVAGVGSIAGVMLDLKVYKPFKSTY
Protocol: Transporter investigations are carried out on the yeast mutant 22574d (Jauniaux & Grenson, Eur. J. Biochem. 190: 39-44, 1990), which harbors a mutation in the gene for amino-acid permease, and on the yeast mutant JT 16 (Tanaka and Fink, Gene 38: 205-214, 1985) which is incapable of histidine uptake, for identification of inhibitors of plant amino-acid transporters. These mutants are transformed with cDNA sequences which code for plant amino-acid transporters and lead to expression of functional transporters in the yeast cells. The cDNA sequences are cDNA sequences which code for the amino-acid transporters AAP1 and AAP2 from Arabidopsis thaliana (Frommer et al., 1993, Proc. Natl. Acad. Sci. USA 90: 5944-5948; Kwart et al., 1993, Plant J. 4:993-1002). For the measurements, cells of these mutants are cultured in minimal medium (NAAG+5 mmol/l proline) at 28° C. and harvested in the logarithmic phase (OD600 =0.6). The cells are spun down in a centrifuge at 4000 rpm and 4 degrees Celsius for 10 minutes and washed 2× with AUB buffer (modified AAB buffer, Ljungdahl et al.). The cell concentration is adjusted to an OD600 of 25 in AUB buffer.
100 μl portions of the cell suspension are mixed with 100 μl of a 1 mmol/l L-proline solution (18.5 kBq of L-[14C]-proline) and various concentrations of the appropriate substance to be investigated. After 20, 60, 120 and 180 seconds, a 50 μl aliquot is removed, diluted in 4 ml -of ice-cold AUB buffer and filtered through glass fever [sic] filter. In order to remove nonspecifically bound L-[14C]-proline, the cells are washed 2× with 4 ml of ice-cold water each time. The radioactivity retained on the glass filter is then measured in a liquid scintillation counter. The radioactivity reflects the amount of radiolabeled proline taken up by the cells. Uptake of radiolabeled proline without addition of a potential inhibitor is determined as one control. Cells of each of the mutants 22574d and JY 16 which have not been transformed with cDNA sequences coding for plant amino-acid transporters are used as further control. Results of measurements of this type on the mutants 22457d-AAP2 which expresses the amino-acid transporter AAP2 from Arabisopsis [sic] thaliana are shown in the following table.
For the investigations, yeast cells of the strain 22457d were transformed with a cDNA sequence which codes for the amino-acid transporter AAP2, and the uptake of radiolabeled proline in the presence of various substances was determined. The various substances tested, their concentration, and the activity of the transporter, shown as percentage activity of the control with which no potential inhibitors were added, are indicated.

Row | Structure (SMILES) | remaining activity at 10 µM ([1]; tested substance 10 μM) [%] | remaining activity at 10 µM ([2]; tested substance 10 μM) [%] | remaining activity at 500 µM ([1]; tested substance 0.5 mM) [%] | remaining activity at 1000 µM ([2]; tested substance 1 mM) [%]
1 | N#CC(C#N)=NNc1cccc(Cl)c1 [CCCP] | 10 | 15.6 ± 2.1 |  | 
2 | CCOC(=O)OC(=O)OCC [DEPC, diethyl pyrocarbonate] |  |  | 6 | 3.1 ± 1.2
